PubChem BioAssay AID1963958 (Molecular Pharmacology Branch, DTP, NCI, 2024)

Test system: MDA-MB-231 multicell spheroids, viability
Experiment: Anticancer human tumor MDA-MB-231 cell line growth inhibition [PI3K];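 further: spheroids exposed to agents for seven days before reading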;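 on viability, T/C: percent of vehicle control luminescence with DMSO treated spheroids as 100%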
Settings: for IC50: curve of first compound; for viability, T/C: stronger effect = lower value; active means viability on the fitted dose curve at most 10% of control; inactive means the rest
From the text: Combinatorial screen of targeted agents with the PI3K inhibitors inavolisib, alpelisib, duvelisib, and copanlisib in multi-cell type tumor spheroids
A high-throughput screen of multi-cell type tumor spheroids was designed to identify active combinations of targeted small molecules and PI3K pathway inhibitors. Complex spheroids include a stromal component modeled by human endothelial cells (HUVEC) and fibroblasts modeled by human mesenchymal stem cells (MSCs). The concentration ranges selected for each drug and investigational agent were based upon clinically achievable concentrations if the clinical Cmax of the agent was known.
Compounds. The drugs and investigational agents: inavolisib (NSC800729), alpelisib (NSC765974), duvelisib (NSC772469), copanlisib (NSC816437), ipatasertib (NSC767898), afuresertib (NSC778305), talazoparib (NSC767125), sapanisertib (NSC764658), selumetinib (NSC741078), tovorafenib (DAY101, NSC766906), vemurafenib (NSC761431), ravoxertinib (NSC781343), sotorasib (NSC818433), MRTX1133 (NSC 836407), abemaciclib (NSC 768073), palbociclib (NSC758247), venetoclax (NSC 766270), SY5609 (NSC837396), enzalutamide (NSC755605), and darolutamide (NSC825331), were obtained from the National Cancer Institute (NCI) Developmental Therapeutics Program Chemical Repository. The FDA-approved anticancer drug set is available from the NCI Developmental Therapeutics Program. […] The stock solutions were prepared in dimethyl sulfoxide (DMSO, Sigma-Aldrich, St. Louis, MO, cat. D2650) at 800-fold the tested concentration and stored at -70 degrees C prior to their use. All drugs and investigational agents were tested over a range starting from a high concentration at or near the clinical Cmax and decreasing in half-log increments. If the clinical Cmax for an agent had not been determined, the highest concentration tested was 10 microM.
Cell Culture. All cells were maintained in an incubator at 37 degrees C and 5% CO2 with 95% humidity. The PDC lines were cultured according to standard operating procedures established by the NCI PDMR (https://pdmr.cancer.gov/sops/default.htm). All PDCs were thawed and cultured in Matrigel-coated flasks prepared with a working solution of 1X Ham's F-12 nutrient mix, without supplementation (Invitrogen, Waltham, MA, cat. 11765054), 100 U/mL penicillin-streptomycin (Invitrogen, cat. 15140122), and 2.5% Matrigel (Corning Inc., Corning, NY, cat. 354248) for the first three passages. The 354836-022-R-J1-PDC, 475296-252-R-J1-PDC, and 997726-040-R-J2-PDC lines were cultured in 6A media, which includes advanced DMEM/F-12 (Thermo Fisher Scientific, cat. 12634028), 10 mM HEPES (Thermo Fisher Scientific, cat. 15630080), 1X GlutaMAX supplement (Thermo Fisher Scientific, cat. 35050061), 0.1 mg/mL primocin (InvivoGen, San Diego, CA, cat. ant-pm-2), 10% defined fetal bovine serum, heat inactivated (HyClone Laboratories Inc., Logan, UT, cat. SH30070.03HI), 50% L-WRN conditioned media (ATCC, cat. CRL-3276), 1.25 mM N-Acetyl-L-cysteine (Sigma-Aldrich, cat. A9165), 10 mM nicotinamide (Sigma-Aldrich, cat. N0636), 1X B-27 supplement (Thermo Fisher Scientific, cat. 17504044), 1X N-2 supplement (Thermo Fisher Scientific, cat. 17502048), and 10 microM Y-27632 dihydrochloride (Tocris Bioscience, Bristol, United Kingdom, cat. 1254). The 624824-186-R-J2-PDC line was cultured in 6C/Colon 1B media, which includes all 6A media components plus 50 ng/mL human EGF recombinant protein (Thermo Fisher Scientific, cat. PHG0311). […]

[1] = second compound 0.00316 µM, first compound 0.000316 µM
[2] = second compound 0.00316 µM, first compound 0.001 µM
[3] = second compound 0.00316 µM, first compound 0.00316 µM
[4] = second compound 0.00316 µM, first compound 0.01 µM
[5] = second compound 0.00316 µM, first compound 0.0316 µM
[6] = second compound 0.00316 µM, first compound 0.1 µM
[7] = second compound 0.01 µM, first compound 0.000316 µM
[8] = second compound 0.01 µM, first compound 0.001 µM
[9] = second compound 0.01 µM, first compound 0.00316 µM
[10] = second compound 0.01 µM, first compound 0.01 µM
[11] = second compound 0.01 µM, first compound 0.0316 µM
[12] = second compound 0.01 µM, first compound 0.1 µM
[13] = second compound 0.0316 µM, first compound 0.000316 µM
[14] = second compound 0.0316 µM, first compound 0.001 µM
[15] = second compound 0.0316 µM, first compound 0.00316 µM
[16] = second compound 0.0316 µM, first compound 0.01 µM
[17] = second compound 0.0316 µM, first compound 0.0316 µM
[18] = second compound 0.0316 µM, first compound 0.1 µM
[19] = second compound 0.1 µM, first compound 0.000316 µM
[20] = second compound 0.1 µM, first compound 0.001 µM
[21] = second compound 0.1 µM, first compound 0.00316 µM
[22] = second compound 0.1 µM, first compound 0.01 µM
[23] = second compound 0.1 µM, first compound 0.0316 µM
[24] = second compound 0.1 µM, first compound 0.1 µM
[25] = second compound 0.316 µM, first compound 0.000316 µM
[26] = second compound 0.316 µM, first compound 0.001 µM
[27] = second compound 0.316 µM, first compound 0.00316 µM
[28] = second compound 0.316 µM, first compound 0.01 µM
[29] = second compound 0.316 µM, first compound 0.0316 µM
[30] = second compound 0.316 µM, first compound 0.1 µM
[31] = second compound 1 µM, first compound 0.000316 µM
[32] = second compound 1 µM, first compound 0.001 µM
[33] = second compound 1 µM, first compound 0.00316 µM
[34] = second compound 1 µM, first compound 0.01 µM
[35] = second compound 1 µM, first compound 0.0316 µM
[36] = second compound 1 µM, first compound 0.1 µM

CC(=O)c1c(C)c2cnc(Nc3ccc(N4CCNCC4)cn3)nc2n(C2CCCC2)c1=O + CC(Nc1ccc2c(c1)OCCn1cc(N3C(=O)OCC3C(F)F)nc1-2)C(N)=O
10.1 nM: IC50 (second compound 0.316 µM)
34.4 nM: IC50 (second compound 0.0316 µM)
15.4 nM: IC50 (second compound 0.1 µM)
74.4 nM: IC50 (second compound 0.00316 µM)
60.6 nM: IC50 (second compound 0.01 µM)
4.52 nM: IC50 (second compound 1 µM)
inactive: viability, T/C [1] 108% | viability, T/C [2] 91.5% | viability, T/C [3] 98.1% | viability, T/C [4] 90.2% | viability, T/C [5] 67.4% | viability, T/C [6] 43.5% | viability, T/C [7] 94.1% | viability, T/C [8] 92.6% | viability, T/C [9] 95.7% | viability, T/C [10] 72.1% | viability, T/C [11] 67% | viability, T/C [12] 38.7% | viability, T/C [13] 80.1% | viability, T/C [14] 75.7% | viability, T/C [15] 79.9% | viability, T/C [16] 69% | viability, T/C [17] 51.8% | viability, T/C [18] 31.6% | viability, T/C [19] 71.3% | viability, T/C [20] 65.7% | viability, T/C [21] 65.1% | viability, T/C [22] 55.2% | viability, T/C [23] 41.3% | viability, T/C [24] 27.9% | viability, T/C [25] 65.8% | viability, T/C [26] 64% | viability, T/C [27] 61.3% | viability, T/C [28] 48.2% | viability, T/C [29] 37.9% | viability, T/C [30] 24.3% | viability, T/C [31] 60.9% | viability, T/C [32] 55.1% | viability, T/C [33] 51.9% | viability, T/C [34] 46.2% | viability, T/C [35] 35.9% | viability, T/C [36] 23.4%

CC(C)n1nc(-c2ccc3oc(N)nc3c2)c2c(N)ncnc21 + CC(Nc1ccc2c(c1)OCCn1cc(N3C(=O)OCC3C(F)F)nc1-2)C(N)=O
5.12 nM: IC50 (second compound 0.1 µM)
12.8 nM: IC50 (second compound 0.0316 µM)
34.9 nM: IC50 (second compound 0.00316 µM)
2.13 nM: IC50 (second compound 1 µM)
27.5 nM: IC50 (second compound 0.01 µM)
3.46 nM: IC50 (second compound 0.316 µM)
inactive: viability, T/C [1] 101% | viability, T/C [2] 92.6% | viability, T/C [3] 94.5% | viability, T/C [4] 77.4% | viability, T/C [5] 51.8% | viability, T/C [6] 31.5% | viability, T/C [7] 89.1% | viability, T/C [8] 93.7% | viability, T/C [9] 89% | viability, T/C [10] 66% | viability, T/C [11] 50% | viability, T/C [12] 30.5% | viability, T/C [13] 81% | viability, T/C [14] 74.6% | viability, T/C [15] 65.4% | viability, T/C [16] 54.2% | viability, T/C [17] 37.7% | viability, T/C [18] 25.5% | viability, T/C [19] 68.6% | viability, T/C [20] 63% | viability, T/C [21] 55.2% | viability, T/C [22] 42.7% | viability, T/C [23] 33.2% | viability, T/C [24] 21.3% | viability, T/C [25] 65.3% | viability, T/C [26] 60.2% | viability, T/C [27] 49.5% | viability, T/C [28] 41.7% | viability, T/C [29] 28.5% | viability, T/C [30] 19.9% | viability, T/C [31] 58.8% | viability, T/C [32] 54.7% | viability, T/C [33] 48.3% | viability, T/C [34] 36.6% | viability, T/C [35] 27.9% | viability, T/C [36] 17.3%

CCCS(=O)(=O)Nc1ccc(F)c(C(=O)c2c[nH]c3ncc(-c4ccc(Cl)cc4)cc23)c1F + CC(Nc1ccc2c(c1)OCCn1cc(N3C(=O)OCC3C(F)F)nc1-2)C(N)=O
4510 nM: IC50 (second compound 0.00316 µM)
inactive: viability, T/C [5] 98.5% | viability, T/C [6] 94.9% | viability, T/C (second compound 0.00316 µM, first compound 0.316 µM) 100% | viability, T/C (second compound 0.00316 µM, first compound 1 µM) 86.9% | viability, T/C (second compound 0.00316 µM, first compound 3.16 µM) 59.2% | viability, T/C (second compound 0.00316 µM, first compound 10 µM) 29.9% | viability, T/C [11] 98.3% | viability, T/C [12] 102% | viability, T/C (second compound 0.01 µM, first compound 0.316 µM) 93.3% | viability, T/C (second compound 0.01 µM, first compound 1 µM) 80.3% | viability, T/C (second compound 0.01 µM, first compound 3.16 µM) 52.8% | viability, T/C (second compound 0.01 µM, first compound 10 µM) 29.5% | viability, T/C [17] 80.5% | viability, T/C [18] 81.6% | viability, T/C (second compound 0.0316 µM, first compound 0.316 µM) 79.9% | viability, T/C (second compound 0.0316 µM, first compound 1 µM) 66.3% | viability, T/C (second compound 0.0316 µM, first compound 3.16 µM) 45.5% | viability, T/C (second compound 0.0316 µM, first compound 10 µM) 26.6% | viability, T/C [23] 80.8% | viability, T/C [24] 71.4% | viability, T/C (second compound 0.1 µM, first compound 0.316 µM) 68.6% | viability, T/C (second compound 0.1 µM, first compound 1 µM) 61.4% | viability, T/C (second compound 0.1 µM, first compound 3.16 µM) 41% | viability, T/C (second compound 0.1 µM, first compound 10 µM) 23.9% | viability, T/C [29] 72% | viability, T/C [30] 68.4% | viability, T/C (second compound 0.316 µM, first compound 0.316 µM) 61.7% | viability, T/C (second compound 0.316 µM, first compound 1 µM) 54.7% | viability, T/C (second compound 0.316 µM, first compound 3.16 µM) 36.7% | viability, T/C (second compound 0.316 µM, first compound 10 µM) 21.7% | viability, T/C [35] 65.4% | viability, T/C [36] 63.4% | viability, T/C (second compound 1 µM, first compound 0.316 µM) 59.8% | viability, T/C (second compound 1 µM, first compound 1 µM) 51% | viability, T/C (second compound 1 µM, first compound 3.16 µM) 36.9% | viability, T/C (second compound 1 µM, first compound 10 µM) 21.4%
1090 nM: IC50 (second compound 1 µM)
2440 nM: IC50 (second compound 0.0316 µM)
1240 nM: IC50 (second compound 0.316 µM)
1870 nM: IC50 (second compound 0.1 µM)
3620 nM: IC50 (second compound 0.01 µM)
